The text below walks through data of patent publication US20230089014A1, “COMPOUND USED AS KINASE INHIBITOR AND USE THEREOF” (TYK MEDICINES (ZHENGZHOU), INC., priority 2020, published 2023).

Her2 A775-G776insYVMA, sequence (P04626 with tags, fused parts or gaps INS775YVMA limits assumed): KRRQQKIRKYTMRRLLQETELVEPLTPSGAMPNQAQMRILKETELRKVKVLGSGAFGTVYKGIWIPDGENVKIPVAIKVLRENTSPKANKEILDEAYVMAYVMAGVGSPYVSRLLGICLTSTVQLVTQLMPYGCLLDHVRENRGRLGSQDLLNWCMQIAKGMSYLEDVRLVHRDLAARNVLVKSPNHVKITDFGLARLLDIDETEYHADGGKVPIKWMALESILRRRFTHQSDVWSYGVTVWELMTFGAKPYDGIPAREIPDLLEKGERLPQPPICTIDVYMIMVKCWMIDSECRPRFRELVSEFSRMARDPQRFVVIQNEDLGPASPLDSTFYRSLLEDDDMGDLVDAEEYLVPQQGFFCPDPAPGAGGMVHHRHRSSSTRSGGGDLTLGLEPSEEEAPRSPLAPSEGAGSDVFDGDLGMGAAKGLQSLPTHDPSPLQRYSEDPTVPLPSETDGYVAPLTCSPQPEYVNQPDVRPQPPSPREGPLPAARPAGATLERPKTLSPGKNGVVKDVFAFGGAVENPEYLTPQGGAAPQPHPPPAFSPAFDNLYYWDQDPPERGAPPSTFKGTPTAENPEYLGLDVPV

One experiment deals with EGFR A763_Y764insFHEA (Homo sapiens, UniProt P00533, INS763FHEA). The experiment can be described thus: Kinase activity assay (33P-ATP filter-binding) on EGFR exon 20 insertion mutant kinase A763_Y764insFHEA. The format is biochemical. Conditions: ATP at Km.
Procedure: (§1) Screening of biological activity of compounds will be performed in duplicate at 10 concentrations.
(§2) Each sample was prepared as a solution with a concentration of 10 mM.
(§3) 1) Basic buffer solution and quench buffer solution for experimental kinases were prepared.
(§4) 2) Compounds for experimental kinases were prepared.
(§5) Compounds for test were dissolved to specific concentrations in 100% dimethyl sulfoxide. (Serial) dilutions were performed with Integra Viaflo Assist assisted DMSO.
(§6) The kinase was added to freshly prepared basic reaction buffer, and any desired cofactors were added to the above substrate solution.
(§7) The EGFR exon 20 insertion mutant kinase was added to the substrate solution and mixed gently; the compound in 100% dimethyl sulfoxide was fed into the kinase reaction mixture by using Acoustic technology (Echo550; nanoliter range) and incubated for 20 minutes at room temperature.
(§8) 33P-ATP (Specific activity 10 Ci/l) was added to the reaction mixture to start the reaction, incubated at room temperature for 2 hours, and the radioactivity was detected by the filter-binding method.
(§9) Kinase activity data are expressed as a percentage of remaining kinase activity in the test sample compared to the medium (dimethyl sulfoxide) reaction. IC50 values and curve fitting were obtained by using Prism ([sequence] software).
Usually IC50 stands for the midpoint of a concentration-inhibition curve. Read a high IC50 as weaker potency in that assay. Turning to `COc1cc2ncnc(Nc3ccc(Cl)c(Cl)c3F)c2cc1N1CCCC1` [Example 2], the IC50 was determined as 3.03 nM.
Regarding `C=CC(=O)N1CC2CC(Oc3cc4c(Nc5ccc(Cl)c(Cl)c5F)ncnc4cc3OC)CC2C1` (stereo not drawn) [Example 7], the IC50 was 4.04 nM.
Regarding `C=CC(=O)N1CCC(C(=O)c2cc3c(Nc4ccc(Cl)c(Cl)c4F)ncnc3cc2OC)CC1` [Example 6], the IC50 was 16.2 nM.
Regarding `C=CC(=O)N1CCC(C(F)(F)c2cc3c(Nc4ccc(Cl)c(Cl)c4F)ncnc3cc2OC)CC1` [Example 5], the IC50 was determined as 2.19 nM.
The same measure, in the same setting: the figure for `C=CC(=O)N1CC(C(=O)c2cc3c(Nc4ccc(Cl)c(Cl)c4F)ncnc3cc2OC)C1` [Example 4] is 11.8 nM; for `C=CC(=O)N1CC(C(F)(F)c2cc3c(Nc4ccc(Cl)c(Cl)c4F)ncnc3cc2OC)C1` [Example 3] it is 1.32 nM; for `C=CC(=O)N1CC2CN(c3cc4c(Nc5ccc(Cl)c(Cl)c5F)ncnc4cc3OC)CC2C1` (stereo not drawn) [Example 1] it is 6.68 nM.

Staying with this experiment, now noted: ATP at Km; class symbols.
For the compound `COc1cc2ncnc(Nc3ccc(Cl)c(Cl)c3F)c2cc1N1CCCC1` [Example 2], the concentration for half-maximal inhibition (IC50) is below 4 nM.
The same measure, in the same setting: the figure for `C=CC(=O)N1CC2CC(Oc3cc4c(Nc5ccc(Cl)c(Cl)c5F)ncnc4cc3OC)CC2C1` (stereo not drawn) [Example 7] is 4 to 40 nM.
`C=CC(=O)N1C2CC(Sc3cc4c(Nc5ccc(Cl)c(Cl)c5F)ncnc4cc3OC)CC1C2` (stereo not drawn) [Example 8] gave an IC50 of 4 to 40 nM.
Regarding `C=CC(=O)N1CCC(C(=O)c2cc3c(Nc4ccc(Cl)c(Cl)c4F)ncnc3cc2OC)CC1` [Example 6], the IC50 lay within 4 to 40 nM.
`C=CC(=O)N1C2CCC1CC(C(=O)c1cc3c(Nc4ccc(Cl)c(Cl)c4F)ncnc3cc1OC)C2` (stereo not drawn) [Example 11] had an IC50 of 4 to 40 nM.
In turn, `C=CC(=O)N1CC2(CC(Oc3cc4c(Nc5ccc(Cl)c(Cl)c5F)ncnc4cc3OC)C2)C1` [Example 13] showed an IC50 of 4 to 40 nM.
Regarding `C=CC(=O)N1CCC(C(F)(F)c2cc3c(Nc4ccc(Cl)c(Cl)c4F)ncnc3cc2OC)CC1` [Example 5], the IC50 is below 4 nM.
Regarding `C=CC(=O)N1CC2CC1CC2C(=O)c1cc2c(Nc3ccc(Cl)c(Cl)c3F)ncnc2cc1OC` (stereo not drawn) [Example 9], the IC50 fell in the range of 4 to 40 nM.
Turning to `C=CC(=O)N1C[C@H]2C[C@H](Oc3cc4c(Nc5ccc(Cl)c(Cl)c5F)ncnc4cc3OCCCN3CCOCC3)C[C@H]2C1` [Example 17], the IC50 lay within 4 to 40 nM.
Still for that read-out and setting: the figure for `C=CC(=O)N1CC(C(=O)c2cc3c(Nc4ccc(Cl)c(Cl)c4F)ncnc3cc2OC)C1` [Example 4] is 4 to 40 nM; for `C=CC(=O)N1CC(C(F)(F)c2cc3c(Nc4ccc(Cl)c(Cl)c4F)ncnc3cc2OC)C1` [Example 3] it is below 4 nM.
For the compound `C=CC(=O)N1CC2CN(c3cc4c(Nc5ccc(Cl)c(Cl)c5F)ncnc4cc3OC)CC2C1` (stereo not drawn) [Example 1], the IC50 is 4 to 40 nM.
On the same count and under the same terms, the figure for `C=CC(=O)N1CC2C(C1)C2Oc1cc2c(Nc3ccc(Cl)c(Cl)c3F)ncnc2cc1OC` (stereo not drawn) [Example 10] is below 4 nM.
Still for that read-out and setting: the figure for `C=CC(=O)N1C[C@H]2C[C@H](Oc3cc4c(Nc5ccc(Cl)c(Cl)c5F)ncnc4cc3OCCOC)C[C@H]2C1` [Example 16] is below 4 nM.

The experiment is the same for the next values; noted with them: EGFR exon 20 insertion mutant kinase, mutant not specified.
Turning to `C=CC(=O)N1CC(C(F)(F)c2cc3c(Nc4ccc(Cl)c(Cl)c4F)ncnc3cc2OC)C1` [Example 3], the “activity relative to that of poziotinib” value was 2-3 times.

A further experiment deals with EGFR D770-N771insNPG (Homo sapiens, UniProt P00533, INS770NPG). Briefly: Kinase activity assay (33P-ATP filter-binding) on EGFR exon 20 insertion mutant kinase D770-N771insNPG. Conditions: ATP at Km. The format is biochemical.
Procedure: as §1, §2, §3, §4, §5, §6, §7, §8, §9
`COc1cc2ncnc(Nc3ccc(Cl)c(Cl)c3F)c2cc1N1CCCC1` [Example 2] gave an IC50 of 1.65 nM.
`C=CC(=O)N1CC2CC(Oc3cc4c(Nc5ccc(Cl)c(Cl)c5F)ncnc4cc3OC)CC2C1` (stereo not drawn) [Example 7] gave an IC50 of 0.833 nM.
Same read-out and setting: the figure for `C=CC(=O)N1CCC(C(=O)c2cc3c(Nc4ccc(Cl)c(Cl)c4F)ncnc3cc2OC)CC1` [Example 6] is 4.51 nM; for `C=CC(=O)N1CCC(C(F)(F)c2cc3c(Nc4ccc(Cl)c(Cl)c4F)ncnc3cc2OC)CC1` [Example 5] it is 1.54 nM.
On the same count and under the same terms, the figure for `C=CC(=O)N1CC(C(=O)c2cc3c(Nc4ccc(Cl)c(Cl)c4F)ncnc3cc2OC)C1` [Example 4] is 3.04 nM; for `C=CC(=O)N1CC(C(F)(F)c2cc3c(Nc4ccc(Cl)c(Cl)c4F)ncnc3cc2OC)C1` [Example 3] it is 0.513 nM; for `C=CC(=O)N1CC2CN(c3cc4c(Nc5ccc(Cl)c(Cl)c5F)ncnc4cc3OC)CC2C1` (stereo not drawn) [Example 1] it is 1.61 nM.

The experiment is the same for the next values; noted with them: ATP at Km; class symbols.
For `COc1cc2ncnc(Nc3ccc(Cl)c(Cl)c3F)c2cc1N1CCCC1` [Example 2], the IC50 was below 4 nM.
In the case of `C=CC(=O)N1CC2CC(Oc3cc4c(Nc5ccc(Cl)c(Cl)c5F)ncnc4cc3OC)CC2C1` (stereo not drawn) [Example 7], the IC50 is below 4 nM.
Take `C=CC(=O)N1C2CC(Sc3cc4c(Nc5ccc(Cl)c(Cl)c5F)ncnc4cc3OC)CC1C2` (stereo not drawn) [Example 8]: the IC50 was 4 to 40 nM.
The same measure, in the same setting: the figure for `C=CC(=O)N1CCC(C(=O)c2cc3c(Nc4ccc(Cl)c(Cl)c4F)ncnc3cc2OC)CC1` [Example 6] is 4 to 40 nM; for `C=CC(=O)N1C2CCC1CC(C(=O)c1cc3c(Nc4ccc(Cl)c(Cl)c4F)ncnc3cc1OC)C2` (stereo not drawn) [Example 11] it is 4 to 40 nM; for `C=CC(=O)N1CC2(CC(Oc3cc4c(Nc5ccc(Cl)c(Cl)c5F)ncnc4cc3OC)C2)C1` [Example 13] it is below 4 nM.
Still for that read-out and setting: the figure for `C=CC(=O)N1CCC(C(F)(F)c2cc3c(Nc4ccc(Cl)c(Cl)c4F)ncnc3cc2OC)CC1` [Example 5] is below 4 nM; for `C=CC(=O)N1CC2CC1CC2C(=O)c1cc2c(Nc3ccc(Cl)c(Cl)c3F)ncnc2cc1OC` (stereo not drawn) [Example 9] it is 4 to 40 nM; for `C=CC(=O)N1C[C@H]2C[C@H](Oc3cc4c(Nc5ccc(Cl)c(Cl)c5F)ncnc4cc3OCCCN3CCOCC3)C[C@H]2C1` [Example 17] it is below 4 nM.
Still for that read-out and setting: the figure for `C=CC(=O)N1CC(C(=O)c2cc3c(Nc4ccc(Cl)c(Cl)c4F)ncnc3cc2OC)C1` [Example 4] is below 4 nM.
`C=CC(=O)N1CC(C(F)(F)c2cc3c(Nc4ccc(Cl)c(Cl)c4F)ncnc3cc2OC)C1` [Example 3] showed an IC50 below 4 nM.
The same measure, in the same setting: the figure for `C=CC(=O)N1CC2CN(c3cc4c(Nc5ccc(Cl)c(Cl)c5F)ncnc4cc3OC)CC2C1` (stereo not drawn) [Example 1] is below 4 nM; for `C=CC(=O)N1CC2C(C1)C2Oc1cc2c(Nc3ccc(Cl)c(Cl)c3F)ncnc2cc1OC` (stereo not drawn) [Example 10] it is below 4 nM.
Same read-out and setting: the figure for `C=CC(=O)N1C[C@H]2C[C@H](Oc3cc4c(Nc5ccc(Cl)c(Cl)c5F)ncnc4cc3OCCOC)C[C@H]2C1` [Example 16] is below 4 nM.

A further experiment addresses Her2 A775-G776insYVMA (Homo sapiens, UniProt P04626, INS775YVMA). The experiment can be described thus: Kinase activity assay (33P-ATP filter-binding) on Her2 exon 20 insertion mutant kinase A775-G776insYVMA. In kind it is biochemical.
Details: not given
Take `C=CC(=O)N1CCC(C(F)(F)c2cc3c(Nc4ccc(Cl)c(Cl)c4F)ncnc3cc2OC)CC1` [Example 5]: the “inhibitory activity on Her2 insertion mutant kinase relative to that of poziotinib” value is “about 4 times”.

Still in this experiment, the particulars now being: ATP at Km.
With `C=CC(=O)N1CC2CC(Oc3cc4c(Nc5ccc(Cl)c(Cl)c5F)ncnc4cc3OC)CC2C1` (stereo not drawn) [Example 7], the IC50 stood at 1.84 nM.
On the same count and under the same terms, the figure for `C=CC(=O)N1CCC(C(F)(F)c2cc3c(Nc4ccc(Cl)c(Cl)c4F)ncnc3cc2OC)CC1` [Example 5] is 1.02 nM; for `C=CC(=O)N1CCC(Oc2cc3c(Nc4ccc(Cl)c(Cl)c4F)ncnc3cc2OC)CC1` [Poziotinib, reference compound] it is 4.79 nM; for `C=CC(=O)N1CC(C(F)(F)c2cc3c(Nc4ccc(Cl)c(Cl)c4F)ncnc3cc2OC)C1` [Example 3] it is 2.61 nM.

The experiment is the same for the next values; noted with them: ATP at Km; class symbols.
In turn, `C=CC(=O)N1CC2CC(Oc3cc4c(Nc5ccc(Cl)c(Cl)c5F)ncnc4cc3OC)CC2C1` (stereo not drawn) [Example 7] displayed an IC50 below 4 nM.
`C=CC(=O)N1C2CCC1CC(C(=O)c1cc3c(Nc4ccc(Cl)c(Cl)c4F)ncnc3cc1OC)C2` (stereo not drawn) [Example 11] registered a half-inhibitory concentration (IC50) of 4 to 40 nM.
On to `C=CC(=O)N1CC2(CC(Oc3cc4c(Nc5ccc(Cl)c(Cl)c5F)ncnc4cc3OC)C2)C1` [Example 13], for which the IC50 was below 4 nM.
The compound `C=CC(=O)N1CCC(C(F)(F)c2cc3c(Nc4ccc(Cl)c(Cl)c4F)ncnc3cc2OC)CC1` [Example 5] gave an IC50 below 4 nM.
For `C=CC(=O)N1CC2CC1CC2C(=O)c1cc2c(Nc3ccc(Cl)c(Cl)c3F)ncnc2cc1OC` (stereo not drawn) [Example 9], the IC50 lay within 4 to 40 nM.
On to `C=CC(=O)N1CCC(Oc2cc3c(Nc4ccc(Cl)c(Cl)c4F)ncnc3cc2OC)CC1` [Poziotinib, reference compound], for which the IC50 is 4 to 40 nM.
The same measure, in the same setting: the figure for `C=CC(=O)N1C[C@H]2C[C@H](Oc3cc4c(Nc5ccc(Cl)c(Cl)c5F)ncnc4cc3OCCCN3CCOCC3)C[C@H]2C1` [Example 17] is below 4 nM; for `C=CC(=O)N1CC(C(F)(F)c2cc3c(Nc4ccc(Cl)c(Cl)c4F)ncnc3cc2OC)C1` [Example 3] it is below 4 nM.
`C=CC(=O)N1C[C@H]2C[C@H](Oc3cc4c(Nc5ccc(Cl)c(Cl)c5F)ncnc4cc3OCCOC)C[C@H]2C1` [Example 16] registered an IC50 below 4 nM.
